From patent US9006238B2, “Pyrazolo pyridine derivatives as NADPH oxidase inhibitors” (Genkyotex SA, priority 2008, dated 2015)

Target: T1, NOX (Homo sapiens, UniProt P04839)
T1 construct: HL60 differentiation to the neutrophil phenotype was triggered by adding Me2SO; endogenous in cells; host or cells: HL-60 cells differentiated with DMSO (1.25% v/v, 6 days) to the neutrophil phenotype
T1 sequence (P04839 1-570): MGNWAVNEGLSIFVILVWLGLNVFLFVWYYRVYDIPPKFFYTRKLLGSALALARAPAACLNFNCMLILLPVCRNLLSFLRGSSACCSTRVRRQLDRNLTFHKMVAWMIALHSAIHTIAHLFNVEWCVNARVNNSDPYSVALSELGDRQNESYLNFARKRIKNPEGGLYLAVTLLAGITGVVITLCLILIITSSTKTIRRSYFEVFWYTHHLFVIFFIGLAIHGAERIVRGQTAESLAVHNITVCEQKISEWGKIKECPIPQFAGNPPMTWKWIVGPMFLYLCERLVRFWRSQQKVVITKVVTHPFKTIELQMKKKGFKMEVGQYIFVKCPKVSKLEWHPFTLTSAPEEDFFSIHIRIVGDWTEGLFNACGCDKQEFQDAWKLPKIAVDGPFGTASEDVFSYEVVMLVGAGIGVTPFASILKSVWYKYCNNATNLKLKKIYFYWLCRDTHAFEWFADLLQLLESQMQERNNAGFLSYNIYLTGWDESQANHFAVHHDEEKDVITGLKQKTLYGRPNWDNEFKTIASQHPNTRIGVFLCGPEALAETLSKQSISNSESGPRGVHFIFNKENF
T1 sequence (P13498 1-195 partner): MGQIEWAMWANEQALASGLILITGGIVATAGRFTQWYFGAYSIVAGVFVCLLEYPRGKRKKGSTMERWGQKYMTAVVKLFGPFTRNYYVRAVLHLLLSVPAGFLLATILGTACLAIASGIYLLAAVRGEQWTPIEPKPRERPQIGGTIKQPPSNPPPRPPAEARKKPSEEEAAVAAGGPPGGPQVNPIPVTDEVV
Test: Amplex Red measurement of extracellular hydrogen peroxide (NOX activity) using DMSO-differentiated HL60 cells
Assay type: cell-based
Details: DMSO-differentiated HL60 cells; for Inhibition (%) of NOX activity: test concentration not given
Experimental: The activity of the compounds according to the invention may be tested for their activity in the inhibition or reduction of formation of reactive oxygen species (ROS) from oxygen in cells. The activity of the compounds is tested in the following cell cultures by different techniques such as nitroblue tetrazolium, Amplex Red, Chemiluminescence (Luminol) and 2′,7′-dichlorodihydrofluorescein diacetate (H2DCF-DA) according to the protocols detailed below.
Human acute myeloid leukemia cell line HL-60 was cultured in RPMI 1640 (Invitrogen) supplemented with 10% heat-inactivated calf serum, 2 mM glutamine, 100 U/mL penicillin (Sigma), and 100 μg streptomycin (Sigma) at 37° C. under a humidified atmosphere of 5% CO2. HL60 differentiation to the neutrophil phenotype was triggered by adding Me2SO (final concentration 1.25% v/v for 6 days) to the culture medium.
Extracellular hydrogen peroxide was measured using Amplex UltraRed (Molecular Probes). Cells were trypsinized (1× Trypsin-EDTA), collected by centrifugation, and resuspended in HBSS supplemented with 1% glucose. Cells were seeded into black 96-well plates at a density of 50,000 cells in 200 μl testing buffer (HBSS 1% glucose containing 0.005 U/mL horseradish peroxidase (Roche) and 50 μM Amplex Red in the presence or absence of compounds according to the invention. As a control, DPI was included at a final concentration of 10 μM The plates were placed in the fluorescent Optima Fluorescent plate reader and kept at 37° C. during 20 min. Fluorescence was measured for […] with excitation and emission wavelengths of 544 nm and 590 nm respectively. NOX activities were expressed as % of the activity in control cells. Residual activity of DPI-treated cells was usually <10%.
The Table 2 below summarizes the percentage of inhibition of NOX activity as measured by Amplex Red using DMSO-differentiated HL60 cells as described above:
The Table 3 below summarizes the IC50 of NOX activity as measured by Amplex Red using DMSO-differentiated HL60 cells as described above: […]

Row | SMILES | IC50 | Inhibition (%) of NOX activity
1 | Cc1c2c(=O)n(Cc3ccccc3)[nH]c2cc(=O)n1-c1cccc(OC(F)(F)F)c1 [Compound 3, 2-Benzyl-4-Methyl-5-[3-(Trifluoromethoxy)Phenyl]-1H-Pyrazolo[4,3-c]Pyridine-3,6(2H,5H)-Dione] | < 5 µM | 63%
2 | COc1cccc(Cc2c3c(=O)n(Cc4ccccc4)[nH]c3cc(=O)n2Cc2ccccn2)c1 [Compound 21, 2-benzyl-4-(3-methoxybenzyl)-5-(pyridin-2-ylmethyl)-1H-pyrazolo[4,3-c] pyridine-3,6(2H,5H)-dione] | < 5 µM | 74%
3 | Cc1c2c(=O)n(Cc3ccc(Cl)cc3)[nH]c2cc(=O)n1Cc1ccccn1 [Compound 2, 2-(4-Chlorobenzyl)-4-Methyl-5-(Pyridin-2-Ylmethyl)-1H-Pyrazolo[4,3-c]Pyridine-3,6(2H,5H)-Dione] | < 5 µM | 61%
4 | Cc1c2c(=O)n(C3CCCCC3)[nH]c2cc(=O)n1Cc1ccccc1CN1CCOCC1 [Compound 13, 2-Cyclohexyl-4-Methyl-5-[2-(Morpholin-4-Ylmethyl)Benzyl]-1H-Pyrazolo[4,3-c]Pyridine-3,6(2H,5H)-Dione] | < 5 µM | 56%
5 | COCCn1[nH]c2cc(=O)n(CC(=O)N3CCN(Cc4ccccc4)CC3)c(C)c2c1=O [Compound 35, 5-[2-(4-benzylpiperazin-1-yl)-2-oxoethyl]-2-(2-methoxyethyl)-4-methyl-1H-pyrazolo [4,3-c]pyridine-3,6(2H,5H)-dione] | < 5 µM | 72%
6 | Cc1c2c(=O)n(C)[nH]c2cc(=O)n1CCN1CCOCC1 [Compound 16, 2,4-Dimethyl-5-(2-Morpholin-4-Ylethyl)-1H-Pyrazolo[4,3-c]Pyridine-3,6(2H,5H)-Dione] | < 5 µM | 74%
7 | O=c1c2c(COc3ccc(F)cc3)n(Cc3ccc(Cl)cc3)c(=O)cc2[nH]n1CCN1CCOCC1 [Compound 51, 5-(4-chlorobenzyl)-4-[(4-fluorophenoxy)methyl]-2-(2-morpholin-4-ylethyl)-1H-pyrazolo[4,3-c]pyridine-3,6 (2H,5H)-dione] | < 5 µM | 76%
8 | CC(=O)Nc1cccc(Cn2c(C)c3c(=O)n(CCc4ccccc4)[nH]c3cc2=O)c1 [Compound 28, N-(3-{[4-methyl-3,6-dioxo-2-(2-phenylethyl)-1,2,3,6-tetrahydro-5H-pyrazolo[4,3-c]pyridin-5-yl]methyl}phenyl) acetamide] | < 5 µM | 78%
9 | COCCn1[nH]c2cc(=O)n(-c3cccc(NC(C)=O)c3)c(C)c2c1=O [Compound 19, N-{3-[2-(2-methoxyethyl)-4-methyl-3,6-dioxo-1,2,3,6-tetrahydro-5H-pyrazolo[4,3-c]pyridin-5-yl]phenyl} acetamide] | < 5 µM | 73%
10 | COCCn1[nH]c2cc(=O)n(C)c(-c3ccc(Cl)cc3)c2c1=O [Compound 77, 4-(4-chlorophenyl)-2-(2-methoxyethyl)-5-methyl-1H-pyrazolo[4,3-c]pyridine-3,6 (2H,5H)-dione] | < 5 µM | 90%
11 | Cc1c2c(=O)n(CCN3CCOCC3)[nH]c2cc(=O)n1Cc1ccc(Cl)cc1 [Compound 10, 5-(4-Chlorobenzyl)-4-Methyl-2-(2-Morpholin-4-Ylethyl)-1H-Pyrazolo[4,3-c]Pyridine-3,6(2H,5H)-Dione] | < 5 µM | 77%
12 | COCCn1[nH]c2cc(=O)n(CCOC)c(CCCOc3ccccc3)c2c1=O [Compound 94, 2,5-bis(2-methoxyethyl)-4-(3-phenoxypropyl)-1H-pyrazolo[4,3-c]pyridine-3,6 (2H,5H)-dione] | < 5 µM | 90%
13 | Cc1c2c(=O)n(C)[nH]c2cc(=O)n1Cc1ccccn1 [Compound 4, 2,4-Dimethyl-5-(Pyridin-2-Ylmethyl)-1H-Pyrazolo[4,3-c]Pyridine-3,6(2H,5H)-Dione] | < 5 µM | 65%
14 | Cc1c2c(=O)n(CC(C)C)[nH]c2cc(=O)n1C1CCc2ccccc21 (stereo not drawn) [Compound 48, 5-(2,3-dihydro-1H-inden-1-yl)-4-methyl-2-(2-methylpropyl)-1H-pyrazolo[4,3-c] pyridine-3,6(2H,5H)-dione] | < 5 µM | 91%
15 | Cn1[nH]c2cc(=O)n(CC3CN(Cc4ccccc4)CCO3)c(-c3ccc(Cl)cc3)c2c1=O (stereo not drawn) [Compound 97, 5-[(4-benzylmorpholin-2-yl)methyl]-4-(4-chlorophenyl)-2-methyl-1H-pyrazolo[4,3-c] pyridine-3,6(2H,5H)-dione] |  | 89%
16 | COCCn1c(CCCOc2ccccc2)c2c(=O)n(CCN3CCOCC3)[nH]c2cc1=O [Compound 74, 5-(2-methoxyethyl)-2-(2-morpholin-4-ylethyl)-4-(3-phenoxypropyl)-1H-pyrazolo[4,3-c]pyridine-3,6 (2H,5H)-dione] | < 5 µM | 95%
17 | Cc1c2c(=O)n(CCc3ccccc3)[nH]c2cc(=O)n1Cc1ccccc1CN1CCOCC1 [Compound 30, 4-methyl-5-[2-(morpholin-4-ylmethyl)benzyl]-2-(2-phenylethyl)-1H-pyrazolo[4,3-c]pyridine-3,6(2H,5H)-dione] | < 5 µM | 77%
18 | Cn1c(COc2ccc(F)cc2)c2c(=O)n(CCN3CCOCC3)[nH]c2cc1=O [Compound 86, 4-[(4-fluorophenoxy)methyl]-5-methyl-2-(2-morpholin-4-ylethyl)-1H-pyrazolo[4,3-c] pyridine-3,6(2H,5H)-dione] | < 5 µM | 87%
19 | CCCCc1c2c(=O)n(C)[nH]c2cc(=O)n1Cc1ccc(Cl)cc1 [Compound 8, 4-Butyl-5-(4-Chlorobenzyl)-2-Methyl-1H-Pyrazolo[4,3-c]Pyridine-3,6(2H,5H)-Dione] | < 5 µM | 79%
20 | Cc1c2c(=O)n(Cc3ccccc3)[nH]c2cc(=O)n1Cc1ccccn1 [Compound 1, 2-Benzyl-4-Methyl-5-(Pyridin-2-Ylmethyl)-1H-Pyrazolo[4,3-c]Pyridine-3,6(2H,5H)-Dione] | < 5 µM | 67%
21 | COCCn1[nH]c2cc(=O)n(CCOC)c(-c3ccc(Cl)cc3)c2c1=O [Compound 58, 4-(4-chlorophenyl)-2,5-bis(2-methoxyethyl)-1H-pyrazolo[4,3-c]pyridine-3,6 (2H,5H)-dione] | < 5 µM | 95%
22 | Cn1[nH]c2cc(=O)n(CC3CNC(=O)C3)c(-c3ccc(Cl)cc3)c2c1=O (stereo not drawn) [Compound 100, 4-(4-chlorophenyl)-2-methyl-5-[(5-oxopyrrolidin-3-yl)methyl]-1H-pyrazolo[4,3-c] pyridine-3,6(2H,5H)-dione] |  | 90%
23 | CCOCCCn1c(COCc2ccccc2)c2c(=O)n(CCN3CCOCC3)[nH]c2cc1=O [Compound 89, 4-[(benzyloxy)methyl]-5-(3-ethoxypropyl)-2-(2-morpholin-4-ylethyl)-1H-pyrazolo[4,3-c]pyridine-3,6 (2H,5H)-dione] | < 5 µM | 86%
24 | COc1cccc(Cn2c(C)c3c(=O)n(CCN4CCOCC4)[nH]c3cc2=O)c1 [Compound 83, 5-(3-methoxybenzyl)-4-methyl-2-(2-morpholin-4-ylethyl)-1H-pyrazolo[4,3-c] pyridine-3,6(2H,5H)-dione] | < 5 µM | 89%
25 | Cc1c2c(=O)n(C)[nH]c2cc(=O)n1C [Compound 5, 2,4,5-Trimethyl-1H-Pyrazolo[4,3-c]Pyridine-3,6(2H,5H)-Dione] | < 5 µM | 48%
